Bounds are passed on as bounds.

Series [1] has as its system prednisolone-resistant leukemia cells. Nature of the series: Overcoming of prednisolone resistance. It counts as cell-based. As to conditions: 72 h. Here is the method:
(§1) The cells were incubated in 6-well plates with 1.0·10^5 cells/mL in two milliliters of medium with the respective steroid derivative in different concentrations. The included solvent control (DMSO) served as a control, which was subtracted from all the other measured values, in order not to take into account the spontaneous apoptosis of the cells that takes place independently of the concentration of active ingredient. After 72 h, a modified cell cycle analysis was performed, in order to quantify the proportion of apoptotic cells by flow cytometry. For each concentration of the steroid, the respective mean values f standard deviations, n=3 (*: p<0.05 vs. DMSO, t test) were determined. Using the curve of the dose-effect relationship (steroid concentration−apoptosis induction) formed from these measured values, the steroid concentration at which apoptosis was triggered in 50% of the tested leukemia cells was read.
Prednisolone resistance is said to be overcome if the induction of apoptosis in prednisolone-resistant leukemia cells is as high as it is in normal leukemia cells.

A further series has as its system Nalm-6 cells. The series is described as follows: Half-maximal apoptosis induction (AC50) in Nalm-6 cells. The conditions noted are these: Homo sapiens; Nalm-6, 72 h, flow cytometry; read-out: Biological effect: half-maximal apoptosis induction (AC50). It counts as cell-based. The procedure:
Apoptosis Induction in Nalm-6 Cells after Treatment with WIL-071 or Different Steroid Derivatives.
as §1

Series [2] relates to pancreatic carcinoma cells (DAN-G). Nature of the series: Apoptosis in pancreatic carcinoma cells. It counts as cell-based. As to conditions: comparable experiments. Here is the method:
In contrast to conventional glucocorticoids, the steroid WIL 071 can induce apoptosis also in pancreatic carcinoma cells.
The DNA fragmentation was measured by flow cytometry, see FIG. 11. The experiments were performed in triplicate. The error bars show the standard deviations of the measured values of three independent experiments.
The standard treatment for pancreatic carcinoma includes 5-fluorouracil.

The nature of series [3]: Tolerability (dose escalation, MTD) in an animal model. It counts as in vivo, NOG-F (Taconic) mice. The procedure: An incremental increase of dose of the three substances Wil-071, Wil-232 and Wil-369 was performed in 8-week-old female NOG-F (Taconic) mice. Different mice were administered one of up to seven different doses of the test substances. The start was on day 1 with the lowest dose of 10 mg/kg. […] All in all, if possible, the doses 10, 20, 40, 80, 100, 150 and 200 mg/kg are tested. Subsequently, the maximum tolerable dose (MTD) was administered to three more animals, and these were subsequently observed for one week, in order to be able to observe any developing symptoms. For this purpose, the animals were observed and weighed on a daily basis. The body weight is considered an indicator of the general condition of the animals.
For the MTD experiment, Wil-071 was dissolved in 100% DMSO, and then diluted 1:50 with a 20% (w/v) 2-hydroxypropyl-beta-cyclodextrin (HPβCD) solution. Thus, 200 μL of injection solution (per mouse) of a 40 mg/kg dose could be achieved. For 80, 100 and 150 mg/kg, the DMSO proportion was increased to up to 4% (v/v) in the final injection solution. In addition, ultrasound had to be employed, and the sample had to be heated at 60° C. for up to 45 min. 200 mg/kg was reached only as a milky suspension. […] Therefore, Wil-071 can be considered non-toxic up to 150 mg/kg. The final MTD could not be determined because of the insufficient solubility.
For 100 mg/kg of Wil-232, the end concentration of DMSO in the injection solution was 2%. In order to dissolve Wil-232, the sample also had to be treated with ultrasound, and heated at 60° C. The dose of 150 mg/kg was achieved only with 4% DMSO, and 200 mg/kg was achieved only as a suspension. […] Otherwise, there were no signs of toxicity, so that the substance can be considered tolerable up to 150 mg/kg. In this case too, a final MTD cannot be determined because of insufficient solubility.
Using a DMSO stock and 20% HPβCD solution, a maximum of only 5 mg/ml was dissolved. A further increase could not be achieved even with more DMSO or HPβCD. Thus, above the dose of 40 mg/kg, a higher injection volume was injected in order to reach the corresponding dose. […] For the tolerability under the current solubility conditions, a value of […] is to be applied. This dose was injected into the 8 animals for pharmacokinetics. In this case too, a final MTD cannot be determined because of insufficient solubility.

Regarding `CC(=O)O[C@@H]1CC[C@@]23CO[C@@H](C(=O)[C@@]2(O)C1)[C@H]1[C@@H]2CC[C@H]([C@H](C)CCCC(C)C)[C@@]2(C)CC[C@@H]13` [TAS-S405, 3α-acetoxy-5α-hydroxy-7β,19-epoxy-cholestan-6-one], the EC50 in series [1] is ~20 µM. Besides, in the series with Nalm-6 cells, the AC50 turned out to be 90 µM.
For `CC(C)CCC[C@@H](C)[C@H]1CC[C@H]2[C@@H]3[C@H]4OC[C@@]5(CC[C@H](OS(C)(=O)=O)C[C@]5(O)C4=O)[C@H]3CC[C@]12C` [TAS-S389, (7β,19-epoxy-5α-hydroxy-6-on-cholestan-3β-yl) ester of methanesulfonic acid], the EC50 in series [1] was ~30 µM. Also, the AC50 in the series with Nalm-6 cells is ~20 µM.
`CC(C)CCC[C@@H](C)[C@H]1CC[C@H]2[C@@H]3[C@H]4OC[C@@]5(CC[C@H](OC(=O)CNC(=O)OC(C)(C)C)C[C@]5(O)C4=O)[C@H]3CC[C@]12C` [WIL360, N-Boc-glycin (7β,19-epoxy-5α-hydroxy-6-on-cholestan-3β-yl) ester]: the concentration for a half-maximal effect (EC50) in series [1] was determined as 20 µM. In addition, the AC50 with Nalm-6 cells is > 20 µM.
As to `CC(C)CCC[C@@H](C)[C@H]1CC[C@H]2[C@@H]3[C@H]4OC[C@@]5(CC[C@H](O)C[C@]5(O)C4(C)O)[C@H]3CC[C@]12C` (stereo partly drawn) [TAS-S406, 7β,19-epoxy-6α-methylcholestan-3β,5α,6β-triol], the EC50 in series [1] was ~17 µM. Moreover, the AC50 in the series with Nalm-6 cells was determined as 13 µM.
The corresponding values for `CC[C@H](CC[C@@H](C)[C@H]1CC[C@H]2[C@@H]3[C@H]4OC[C@@]5(CC[C@H](O)C[C@]5(O)C4=O)[C@H]3CC[C@]12C)C(C)C` [WIL-DK-09, 3β,5α-dihydroxy-7β,19-epoxy-stigmastan-6-one] are ~38 µM and ~15 µM.
Take `C=C1[C@@H]2OC[C@@]3(CC[C@H](O)C[C@]13O)[C@H]1CC[C@]3(C)[C@@H]([C@H](C)CCCC(C)C)CC[C@H]3[C@H]21` [TAS-S399, 7β,19-epoxy-6-methylen-cholest-3β,5α-diol]: the EC50 in series [1] is ~75 µM. Moreover, in the series on Nalm-6 cells, the half-maximal activity concentration (AC50) is 50 µM.
On to `CC(C)CCC[C@@H](C)[C@H]1CC[C@H]2[C@@H]3[C@H]4OC[C@@]5(CC=CC[C@]5(O)C4=O)[C@H]3CC[C@]12C` [TAS-S392, 7β,19-epoxy-5α-hydroxy-cholest-2-en-6-one], for which, in series [1], the EC50 was ~39 µM. Further, the AC50 with Nalm-6 cells is ~46 µM.
In turn, `CC(C)CCC[C@@H](C)[C@H]1CC[C@H]2[C@@H]3[C@H]4OC[C@@]5(CCC(=O)C=C5C4=O)[C@H]3CC[C@]12C` [WIL-270, 7β,19-epoxy-cholest-4-en-3,6-dione] yielded an EC50 in series [1] of 18 µM. Besides, the concentration at half-maximal activity (AC50) with Nalm-6 cells was 20 µM.
For the compound `CC(C)CCC[C@@H](C)[C@H]1CC[C@H]2[C@@H]3[C@H]4OC[C@@]5(CCC(=O)C[C@]5(O)C4=O)[C@H]3CC[C@]12C` [WIL-241, 5α-hydroxy-7β,19-epoxy-cholestane-3,6-dione], the AC50 in the series on Nalm-6 cells is 41 µM.
In the case of `COC(=O)O[C@H]1CC[C@@]23CO[C@@H](C(=O)[C@@]2(O)C1)[C@H]1[C@@H]2CC[C@H]([C@H](C)CCCC(C)C)[C@@]2(C)CC[C@@H]13` [WIL357, 7β,19-epoxy-5α-hydroxy-6-on-cholestan-3β-yl-methyl carbonate], the EC50 in series [1] is > 50 µM. The AC50 with Nalm-6 cells was > 50 µM.
On to `C=C(CC(=O)O[C@H]1CC[C@@]23CO[C@@H](C(=O)[C@@]2(O)C1)[C@H]1[C@@H]2CC[C@H]([C@H](C)CCCC(C)C)[C@@]2(C)CC[C@@H]13)C(=O)OC` [WIL367, 4-(7β,19-epoxy-5α-hydroxy-6-on-cholestan-3β-yl)-1-methyl ester of itaconic acid], for which the EC50 in series [1] is ~12.5 µM. Also, the AC50 with Nalm-6 cells is ~8 µM.
The corresponding values for `CC(C)CCC[C@@H](C)[C@H]1CC[C@H]2[C@@H]3[C@H]4OC[C@@]5(CCCC[C@]5(O)C4=O)[C@H]3CC[C@]12C` [TAS-S398, 7β,19-epoxy-5α-hydroxy-cholestan-6-one] are ~67 µM and ~80 µM.
The corresponding values for `CC(C)CCC[C@@H](C)[C@H]1CC[C@H]2[C@@H]3[C@H]4OC[C@@]5(CC[C@H](OC(=O)CO)C[C@]5(O)C4=O)[C@H]3CC[C@]12C` [WIL364, (7β,19-epoxy-5α-hydroxy-6-on-cholestan-3β-yl) ester of glycolic acid] are ~17.5 µM and ~18 µM.
As for `CC[C@H](CC[C@@H](C)[C@H]1CC[C@H]2[C@@H]3[C@H]4OC[C@@]5(CC[C@H](OC(C)=O)C[C@]5(O)C4=O)[C@H]3CC[C@]12C)C(C)C` [WIL-DK-08, 3β-acetoxy-5α-hydroxy-7β,19-epoxy-stigmastan-6-one], the EC50 in series [1] was ~40 µM. Also, the AC50 with Nalm-6 cells came to 50 µM.
Consider `O=C1[O][Pt]2([NH][C@@H]3CCCC[C@H]3[NH]2)[O]C1=O` [Oxaliplatin], for which, in series [2] (at 50 μM), the apoptosis is recorded as 14%.
`CC(=O)O[C@H]1CC[C@@]23CO[C@@H](C(=O)[C@@]2(O)C1)[C@H]1[C@@H]2CC[C@H]([C@H](C)CCCC(C)C)[C@@]2(C)CC[C@@H]13` [WIL-232, 3β-acetoxy-5α-hydroxy-7β,19-epoxy-cholestan-6-one]: the “outcome of injection of the 200 mg/kg suspension” value in series [3] (200 mg/kg as suspension, signs of pulmonary embolism in section) is listed as “immediate death of the animal”. Further, the “dose up to which non-toxic / tolerable” value in series [3] (injection into caudal vein, mice, final MTD not determinable because of solubility) was “up to 150 mg/kg”. Also, in series [1], it took 17.5 µM to reach a half-maximal effect (EC50). In the series on Nalm-6 cells, the AC50 is 25 µM.
`CC(C)CCC[C@@H](C)[C@H]1CC[C@H]2[C@@H]3[C@H]4OC[C@@]5(CC[C@H](O)C[C@]5(OCc5ccccc5)C4=O)[C@H]3CC[C@]12C` [WIL-242b, 5α-benzyloxy-3β-hydroxy-7β,19-epoxy-cholestan-6-one] showed an EC50 in series [1] of 40 µM. Moreover, the AC50 in the series on Nalm-6 cells amounted to 37 µM.
In series [1], `CC(C)CCC[C@@H](C)[C@H]1CC[C@H]2[C@@H]3[C@H]4OC[C@@]5(CC[C@@H](O)C[C@]5(O)C4=O)[C@H]3CC[C@]12C` [TAS-S403, 3α,5α-dihydroxy-7β,19-epoxy-cholestan-6-one] came in with an EC50 of 20 µM. The concentration at half-maximal activity (AC50) with Nalm-6 cells came out at 100 µM.
Consider `O=c1[nH]cc(F)c(=O)[nH]1` [5-fluorouracil], for which the apoptosis in series [2] (at 30 μM) came to 24.9%; in series [2] (at 50 μM) it was 21.2%.

The values above are taken from patent US20240398836A1, “EPOXY STEROIDS” (priority 2021, published 2024).
